Earlier results as cited in patent US6825040B2, “Method of using a vapor acid test kit” (Mainstream Engineering Corporation, priority 1995, dated 2004).
Where two headings read alike, the source gives them in different places.

Tests used:
[1] = negative log of the dissociation equilibrium constant of the indicator
[2] = pH range of the indicator colour change

Compound | pKa [1] | pH Range [2] | pH Range ([2]; listed as Thymol blue)
Cc1cc(C2(c3cc(C)c(O)c(Br)c3)OS(=O)(=O)c3ccccc32)cc(Br)c1O [Bromocresol purple, Dibromo-o-cresolsulfonephthalein] |  | 5.2 to 6.8 | 
O=S1(=O)OC(c2ccc(O)c(Br)c2)(c2ccc(O)c(Br)c2)c2ccccc21 [Bromophenol red, Dibromophenolsulfonephthalein] |  | 5.2 to 6.8 | 
O=S1(=O)OC(c2ccc(O)c(Cl)c2)(c2ccc(O)c(Cl)c2)c2ccccc21 [Chlorophenol red, Dichlorophenolsulfonephthalein] | 6.0 | 5.4 to 6.8 | 
CN(C)c1ccc(N=Nc2ccc(S(=O)(=O)[O-])cc2)cc1.[Na+] [Methyl orange, Dimethylaminoazobenzene sodium sulfonate] | 3.40 | 3.1 to 4.4 | 
CN(C)c1ccc(/N=N/c2ccccc2C(=O)O)cc1 [Methyl red, o-Carboxybenzeneazodimethylaniline] | 4.95 | 4.4 to 6.2 | 
O=C1OC(c2ccc(O)cc2)(c2ccc(O)cc2)c2ccccc21 [Phenolphthalein] | 9.4 | 8.0 to 10.0 | 
O=S(=O)([O-])c1ccc(N=Nc2ccc(Nc3ccccc3)cc2)cc1.[Na+] [Tropeolin 00, Diphenylamino-p-benzene sodium sulfonate] |  | 1.3 to 3.2 | 
O=S(=O)([O-])c1ccc(N=Nc2ccc(O)cc2O)cc1.[Na+] [Tropeolin 0, p-Sulfobenzeneazoresorcinol] |  | 11.0 to 13.0 | 

The next lines start with the values.

pKa [1] | pH Range [2] | pH Range ([2]; listed as Thymol blue) | Compound
4.58 | 4.0 to 6.8 |  | Cc1c(C2(c3cc(Br)c(O)c(Br)c3C)OS(=O)(=O)c3ccccc32)cc(Br)c(O)c1Br [Bromocresol green, Tetrabromo-m-cresolsulfonephthalein]
 | 6.2 to 7.6 |  | Cc1c(C2(c3cc(C(C)C)c(O)c(Br)c3C)OS(=O)(=O)c3ccccc32)cc(C(C)C)c(O)c1Br [Bromothymol blue, Dibromothymolsulfonephthalein]
 | 1.2 to 2.8 | 8.0 to 9.6 | Cc1cc(O)c(C(C)C)cc1C1(c2cc(C(C)C)c(O)cc2C)OS(=O)(=O)c2ccccc21 [Thymol blue (acid range), Thymolsulfonephthalein]
10.0 | 9.4 to 10.6 |  | Cc1cc(O)c(C(C)C)cc1C1(c2cc(C(C)C)c(O)cc2C)OC(=O)c2ccccc21 [Thymolphthalein]
